From BigSolDB 2.1

O=P1(C(Nc2ccccc2)c2ccccc2)OCC2(CO1)COP(=O)(C(Nc1ccccc1)c1ccccc1)OC2 (configuration not stated)
Conditions	solubility (mole fraction)
in 1,2-dichloroethane, 283.35 K	0.000119
in 1,2-dichloroethane, 288.25 K	0.000127
in 1,2-dichloroethane, 293.3 K	0.00014
in 1,2-dichloroethane, 297.95 K	0.000153
in 1,2-dichloroethane, 303.45 K	0.000163
in 1,2-dichloroethane, 308.35 K	0.000176
in 1,2-dichloroethane, 313.45 K	0.00019
in 1,2-dichloroethane, 318.25 K	0.000208
in 1,2-dichloroethane, 323.45 K	0.000219
in 1,2-dichloroethane, 327.95 K	0.000231
in 1,2-dichloroethane, 333.35 K	0.000249
in 1,2-dichloroethane, 338.15 K	0.000271
in 1,4-dioxane, 283.15 K	7.3e-05
in 1,4-dioxane, 288.35 K	8.4e-05
in 1,4-dioxane, 293.25 K	0.0001
in 1,4-dioxane, 298.35 K	0.000121
in 1,4-dioxane, 303.15 K	0.000146
in 1,4-dioxane, 308.25 K	0.000176
in 1,4-dioxane, 313.45 K	0.000202
in 1,4-dioxane, 318.65 K	0.000248
in 1,4-dioxane, 323.55 K	0.000286
in 1,4-dioxane, 328.25 K	0.000332
in 1,4-dioxane, 333.2 K	0.000417
in 1,4-dioxane, 338.3 K	0.000479
in THF, 288.45 K	0.00381
in THF, 293.25 K	0.00428
in THF, 298.15 K	0.00481
in THF, 303.15 K	0.0053
in THF, 308.65 K	0.00588
in THF, 313.45 K	0.00645
in THF, 318.45 K	0.00711
in THF, 323.55 K	0.00788
in THF, 328.35 K	0.00862
in THF, 333.25 K	0.01
in THF, 338.15 K	0.0108
in acetic acid, 298.25 K	0.000115
in acetic acid, 303.65 K	0.000156
in acetic acid, 308.15 K	0.000194
in acetic acid, 313.25 K	0.000233
in acetic acid, 318.25 K	0.000288
in acetic acid, 323.15 K	0.000326
in acetic acid, 328.25 K	0.000348
in acetic acid, 333.45 K	0.000406
in acetic acid, 338.15 K	0.000444
in acetone, 283.35 K	9.1e-05
in acetone, 288.25 K	0.000101
in acetone, 293.25 K	0.00011
in acetone, 298.3 K	0.000123
in acetone, 303.35 K	0.000136
in acetone, 308.45 K	0.000151
in acetone, 313.25 K	0.000164
in acetone, 318.55 K	0.000183
in acetone, 323.25 K	0.000205
in acetone, 328.35 K	0.000221
in acetonitrile, 288.3 K	3.6e-05
in acetonitrile, 293.2 K	4.5e-05
in acetonitrile, 298.25 K	5.5e-05
in acetonitrile, 303.15 K	6.1e-05
in acetonitrile, 308.25 K	7.6e-05
in acetonitrile, 313.2 K	8.7e-05
in acetonitrile, 317.95 K	9.8e-05
in acetonitrile, 323.55 K	0.000121
